The NIST ThermoML archive (doi:10.1021/je700671t)
± gives the expanded uncertainty stated by the source.

Assays:
[1] = 101 kPa, Liquid; for viscosity: Capillary tube (Ostwald / Ubbelohde) method
[2] = xn = mol fraction of the nth substance listed; conditions: 101 kPa, Liquid, x2 = 0; for viscosity: Capillary tube (Ostwald / Ubbelohde) method

CN(C)C=O [dimethylformamide]
mass density ([1]; 283.15 K): 958.96 ± 0.25 kg/m3
mass density ([1]; 288.15 K): 954.17 ± 0.26 kg/m3
mass density ([1]; 293.15 K): 949.39 ± 0.27 kg/m3
viscosity ([1]; 293.15 K): 0.864 ± 0.01 mPa·s
mass density ([1]; 298.15 K): 944.6 ± 0.27 kg/m3
mass density ([1]; 303.15 K): 939.83 ± 0.28 kg/m3
viscosity ([1]; 303.15 K): 0.766 ± 0.009 mPa·s
mass density ([1]; 308.15 K): 935.05 ± 0.29 kg/m3
mass density ([1]; 313.15 K): 930.27 ± 0.29 kg/m3
viscosity ([1]; 313.15 K): 0.684 ± 0.009 mPa·s
mass density ([1]; 318.15 K): 925.49 ± 0.3 kg/m3
mass density ([1]; 323.15 K): 920.71 ± 0.31 kg/m3
viscosity ([1]; 323.15 K): 0.617 ± 0.009 mPa·s
mass density ([1]; 328.15 K): 915.92 ± 0.32 kg/m3
mass density ([1]; 333.15 K): 911.13 ± 0.32 kg/m3
viscosity ([1]; 333.15 K): 0.559 ± 0.009 mPa·s
mass density ([1]; 338.15 K): 906.32 ± 0.33 kg/m3
mass density ([1]; 343.15 K): 901.51 ± 0.34 kg/m3
viscosity ([1]; 343.15 K): 0.51 ± 0.009 mPa·s
mass density ([1]; 348.15 K): 896.69 ± 0.34 kg/m3
mass density ([1]; 353.15 K): 891.86 ± 0.35 kg/m3
viscosity ([1]; 353.15 K): 0.47 ± 0.009 mPa·s

O [water] + CN(C)C=O
mass density ([2]; 283.15 K): 999.7 ± 0.13 kg/m3
viscosity ([2]; 293.15 K): 1.026 ± 0.01 mPa·s
viscosity ([2]; 303.15 K): 0.817 ± 0.009 mPa·s
viscosity ([2]; 313.15 K): 0.67 ± 0.009 mPa·s
viscosity ([2]; 323.15 K): 0.561 ± 0.009 mPa·s
mass density ([2]; 323.15 K): 988.03 ± 0.14 kg/m3
mass density ([2]; 328.15 K): 985.69 ± 0.15 kg/m3
viscosity ([2]; 333.15 K): 0.48 ± 0.009 mPa·s
mass density ([2]; 333.15 K): 983.19 ± 0.15 kg/m3
mass density ([2]; 338.15 K): 980.55 ± 0.16 kg/m3
viscosity ([2]; 343.15 K): 0.419 ± 0.008 mPa·s
mass density ([2]; 343.15 K): 977.76 ± 0.16 kg/m3
mass density ([2]; 348.15 K): 974.84 ± 0.16 kg/m3
viscosity ([2]; 353.15 K): 0.371 ± 0.008 mPa·s
mass density ([2]; 353.15 K): 971.79 ± 0.17 kg/m3
